In patent publication US20230143604A1, “QW DOSING OF GIP RECEPTOR AGONIST PEPTIDE COMPOUNDS AND USES THEREOF” (TAKEDA PHARMACEUTICAL COMPANY LIMITED, priority 2020, published 2023):
Starred links: 1 amine or outer side, 2 acyl side, 3 side chain; linkers in the order of their positions; H or OH if unused. Non-standard residues stand in square brackets, D forms with d. Residues, ends and D or L forms follow the SMILES beside them. Groups on a side chain read outwards from the residue. *: point of attachment. C18 diacid = O=C(O)CCCCCCCCCCCCCCCCC(=O)*; γGlu = O=C(O)[C@H](CCC(=O)[*:2])N[*:1]; NMeY = CN[C@@H](Cc1ccc(O)cc1)C(=O)O; AEEA = NCCOCCOCC(=O)O; Aib = CC(C)(N)C(=O)O

Assay: physchem
In short: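 Solubility at pH 7.4 determined by stepwise addition of 200 mM phosphate buffer in 100 μL increments to 3 mg peptide, mixing briefly each time, until no insoluble material remained, then measured by liquid chromatography.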

Question: Which results are given for `CC[C@H](C)[C@H](NC(=O)[C@H](CO)NC(=O)[C@H](Cc1ccc(O)cc1)NC(=O)[C@H](CC(=O)O)NC(=O)[C@H](CO)NC(=O)[C@@H](NC(=O)[C@H](Cc1ccccc1)NC(=O)[C@@H](NC(=O)CNC(=O)[C@H](CCC(=O)O)NC(=O)C(C)(C)NC(=O)[C@H](Cc1ccc(O)cc1)NC)[C@@H](C)O)[C@@H](C)CC)C(=O)N[C@@H](C)C(=O)N[C@@H](CC(C)C)C(=O)N[C@@H](CC(=O)O)C(=O)N[C@@H](CCCNC(=N)N)C(=O)NC(C)(C)C(=O)N[C@@H](C)C(=O)N[C@@H](CCC(N)=O)C(=O)NC(C)(C)C(=O)N[C@@H](CCCCNC(=O)COCCOCCNC(=O)COCCOCCNC(=O)CC[C@H](NC(=O)CC[C@H](NC(=O)CCCCCCCCCCCCCCCCC(=O)O)C(=O)O)C(=O)O)C(=O)N[C@@H](Cc1ccccc1)C(=O)N[C@H](C(=O)N[C@@H](CC(N)=O)C(=O)N[C@@H](Cc1c[nH]c2ccccc12)C(=O)N[C@@H](CC(C)C)C(=O)N[C@@H](CC(C)C)C(=O)N[C@@H](C)C(=O)N[C@@H](CCC(N)=O)C(=O)N[C@@H](CO)C(=O)NCC(=O)O)C(C)C` [Compound 42] (H-[NMeY][Aib]EGTFISDYSIALDR[Aib]AQ[Aib]K([AEEA-AEEA-γGlu-γGlu-C18 diacid])FVNWLLAQSG-OH)?
Answer: solubility (pH 7.4): ≥ 15 mg/mL; solubility (pH 7.4, aqueous buffer): ≥ 30 mg/mL

Question: Which solubility (pH 7.4) does the source give for `CC[C@H](C)[C@H](NC(=O)[C@H](CO)NC(=O)[C@H](Cc1ccc(O)cc1)NC(=O)[C@H](CC(=O)O)NC(=O)[C@H](CO)NC(=O)[C@@H](NC(=O)[C@H](Cc1ccccc1)NC(=O)[C@@H](NC(=O)CNC(=O)[C@H](CCC(=O)O)NC(=O)C(C)(C)NC(=O)[C@H](Cc1ccc(O)cc1)NC)[C@@H](C)O)[C@@H](C)CC)C(=O)N[C@@H](C)C(=O)N[C@@H](CC(C)C)C(=O)N[C@@H](CC(=O)O)C(=O)N[C@@H](CCCNC(=N)N)C(=O)NC(C)(C)C(=O)N[C@@H](CCCCNC(=O)COCCOCCNC(=O)COCCOCCNC(=O)CC[C@H](NC(=O)CC[C@H](NC(=O)CCCCCCCCCCCCCCCCC(=O)O)C(=O)O)C(=O)O)C(=O)N[C@@H](CCC(N)=O)C(=O)NC(C)(C)C(=O)N[C@@H](CC(N)=O)C(=O)N[C@@H](Cc1ccccc1)C(=O)N[C@H](C(=O)N[C@@H](CC(N)=O)C(=O)N[C@@H](Cc1c[nH]c2ccccc12)C(=O)N[C@@H](CC(C)C)C(=O)N[C@@H](CC(C)C)C(=O)N[C@@H](C)C(=O)N[C@@H](CCC(N)=O)C(=O)N[C@@H](CO)C(=O)NCC(=O)O)C(C)C` [Compound 46] (H-[NMeY][Aib]EGTFISDYSIALDR[Aib]K([AEEA-AEEA-γGlu-γGlu-C18 diacid])Q[Aib]NFVNWLLAQSG-OH) here?
Answer: ≥ 15 mg/mL

Question: What about the solubility (pH 7.4, aqueous buffer) of the same molecule?
Answer: ≥ 30 mg/mL

Question: With `CC[C@H](C)[C@H](NC(=O)[C@H](CO)NC(=O)[C@H](Cc1ccc(O)cc1)NC(=O)[C@H](CC(=O)O)NC(=O)[C@H](CO)NC(=O)[C@@H](NC(=O)[C@H](Cc1ccccc1)NC(=O)[C@@H](NC(=O)CNC(=O)[C@H](CCC(=O)O)NC(=O)C(C)(C)NC(=O)[C@H](Cc1ccc(O)cc1)NC)[C@@H](C)O)[C@@H](C)CC)C(=O)N[C@@H](C)C(=O)N[C@@H](CC(C)C)C(=O)N[C@@H](CC(=O)O)C(=O)N[C@@H](CCCNC(=N)N)C(=O)NC(C)(C)C(=O)N[C@@H](CCCCNC(=O)COCCOCCNC(=O)COCCOCCNC(=O)CC[C@H](NC(=O)CC[C@H](NC(=O)CCCCCCCCCCCCCCCCC(=O)O)C(=O)O)C(=O)O)C(=O)N[C@@H](CCC(N)=O)C(=O)NC(C)(C)C(=O)N[C@@H](CC(=O)O)C(=O)N[C@@H](Cc1ccccc1)C(=O)N[C@H](C(=O)N[C@@H](CC(N)=O)C(=O)N[C@@H](Cc1c[nH]c2ccccc12)C(=O)N[C@@H](CC(C)C)C(=O)N[C@@H](CC(C)C)C(=O)N[C@@H](C)C(=O)N[C@@H](CCC(N)=O)C(=O)N[C@@H](CCCNC(=N)N)C(=O)NCC(=O)O)C(C)C` [Compound 49] (H-[NMeY][Aib]EGTFISDYSIALDR[Aib]K([AEEA-AEEA-γGlu-γGlu-C18 diacid])Q[Aib]DFVNWLLAQRG-OH) as the molecule, how does the solubility (pH 7.4) read?
Answer: ≥ 15 mg/mL

Question: And the solubility (pH 7.4, aqueous buffer)?
Answer: ≥ 30 mg/mL

Question: Which solubility (pH 7.4) does the source give for `CC[C@H](C)[C@H](NC(=O)[C@H](CO)NC(=O)[C@H](Cc1ccc(O)cc1)NC(=O)[C@H](CC(=O)O)NC(=O)[C@H](CO)NC(=O)[C@@H](NC(=O)[C@H](Cc1ccccc1)NC(=O)[C@@H](NC(=O)CNC(=O)[C@H](CCC(=O)O)NC(=O)C(C)(C)NC(=O)[C@H](Cc1ccc(O)cc1)NC)[C@@H](C)O)[C@@H](C)CC)C(=O)N[C@@H](C)C(=O)N[C@@H](CC(C)C)C(=O)N[C@@H](CC(=O)O)C(=O)N[C@@H](CCCNC(=N)N)C(=O)NC(C)(C)C(=O)N[C@@H](C)C(=O)N[C@@H](CCC(N)=O)C(=O)NC(C)(C)C(=O)N[C@@H](CC(N)=O)C(=O)N[C@@H](Cc1ccccc1)C(=O)N[C@H](C(=O)N[C@@H](CC(N)=O)C(=O)N[C@@H](Cc1c[nH]c2ccccc12)C(=O)N[C@@H](CC(C)C)C(=O)N[C@@H](CC(C)C)C(=O)N[C@@H](C)C(=O)N[C@@H](CCCCNC(=O)COCCOCCNC(=O)COCCOCCNC(=O)CC[C@H](NC(=O)CC[C@H](NC(=O)CCCCCCCCCCCCCCCCC(=O)O)C(=O)O)C(=O)O)C(=O)N[C@@H](CCCNC(=N)N)C(=O)NCC(=O)O)C(C)C` [Compound 55] (H-[NMeY][Aib]EGTFISDYSIALDR[Aib]AQ[Aib]NFVNWLLAK([AEEA-AEEA-γGlu-γGlu-C18 diacid])RG-OH) here?
Answer: ≥ 15 mg/mL

Question: What about the solubility (pH 7.4, aqueous buffer) of the same molecule?
Answer: ≥ 30 mg/mL

Question: What does the source list for `CC[C@H](C)[C@H](NC(=O)[C@H](CO)NC(=O)[C@H](Cc1ccc(O)cc1)NC(=O)[C@H](CC(=O)O)NC(=O)[C@H](CO)NC(=O)[C@@H](NC(=O)[C@H](Cc1ccccc1)NC(=O)[C@@H](NC(=O)CNC(=O)[C@H](CCC(=O)O)NC(=O)C(C)(C)NC(=O)[C@H](Cc1ccc(O)cc1)NC)[C@@H](C)O)[C@@H](C)CC)C(=O)N[C@@H](C)C(=O)N[C@@H](CC(C)C)C(=O)N[C@@H](CC(=O)O)C(=O)N[C@@H](CCCNC(=N)N)C(=O)NC(C)(C)C(=O)N[C@@H](C)C(=O)N[C@@H](CCC(N)=O)C(=O)NC(C)(C)C(=O)N[C@@H](CC(=O)O)C(=O)N[C@@H](Cc1ccccc1)C(=O)N[C@H](C(=O)N[C@@H](CC(N)=O)C(=O)N[C@@H](Cc1c[nH]c2ccccc12)C(=O)N[C@@H](CC(C)C)C(=O)N[C@@H](CC(C)C)C(=O)N[C@@H](C)C(=O)N[C@@H](CCCCNC(=O)COCCOCCNC(=O)COCCOCCNC(=O)CC[C@H](NC(=O)CC[C@H](NC(=O)CCCCCCCCCCCCCCCCC(=O)O)C(=O)O)C(=O)O)C(=O)N[C@@H](CCCNC(=N)N)C(=O)NCC(=O)O)C(C)C` [Compound 56] (H-[NMeY][Aib]EGTFISDYSIALDR[Aib]AQ[Aib]DFVNWLLAK([AEEA-AEEA-γGlu-γGlu-C18 diacid])RG-OH)?
Answer: solubility (pH 7.4): ≥ 15 mg/mL; solubility (pH 7.4, aqueous buffer): ≥ 30 mg/mL

Question: What does the source list for `CC[C@H](C)[C@H](NC(=O)[C@H](CO)NC(=O)[C@H](Cc1ccc(O)cc1)NC(=O)[C@H](CC(=O)O)NC(=O)[C@H](CO)NC(=O)[C@@H](NC(=O)[C@H](Cc1ccccc1)NC(=O)[C@@H](NC(=O)CNC(=O)[C@H](CCC(=O)O)NC(=O)C(C)(C)NC(=O)[C@H](Cc1ccc(O)cc1)NC)[C@@H](C)O)[C@@H](C)CC)C(=O)N[C@@H](C)C(=O)N[C@@H](CC(C)C)C(=O)N[C@@H](CC(=O)O)C(=O)N[C@@H](CCCNC(=N)N)C(=O)NC(C)(C)C(=O)N[C@@H](C)C(=O)N[C@@H](CCC(N)=O)C(=O)NC(C)(C)C(=O)N[C@@H](CC(=O)O)C(=O)N[C@@H](Cc1ccccc1)C(=O)N[C@H](C(=O)N[C@@H](CC(N)=O)C(=O)N[C@@H](Cc1c[nH]c2ccccc12)C(=O)N[C@@H](CC(C)C)C(=O)N[C@@H](CC(C)C)C(=O)N[C@@H](C)C(=O)N[C@@H](CCCCNC(=O)COCCOCCNC(=O)COCCOCCNC(=O)CC[C@H](NC(=O)CC[C@H](NC(=O)CCCCCCCCCCCCCCCCC(=O)O)C(=O)O)C(=O)O)C(=O)N[C@@H](CCCNC(=N)N)C(=O)NCC(=O)NCC(=O)NCC(=O)NCC(=O)N[C@@H](CO)C(N)=O)C(C)C` [Compound 57] (H-[NMeY][Aib]EGTFISDYSIALDR[Aib]AQ[Aib]DFVNWLLAK([AEEA-AEEA-γGlu-γGlu-C18 diacid])RGGGGS-NH2)?
Answer: solubility (pH 7.4): ≥ 15 mg/mL; solubility (pH 7.4, aqueous buffer): ≥ 30 mg/mL

Question: What does the source list for `CC[C@H](C)[C@H](NC(=O)[C@H](CO)NC(=O)[C@H](Cc1ccc(O)cc1)NC(=O)[C@H](CC(=O)O)NC(=O)[C@H](CO)NC(=O)[C@@H](NC(=O)[C@H](Cc1ccccc1)NC(=O)[C@@H](NC(=O)CNC(=O)[C@H](CCC(=O)O)NC(=O)C(C)(C)NC(=O)[C@H](Cc1ccc(O)cc1)NC)[C@@H](C)O)[C@@H](C)CC)C(=O)N[C@@H](C)C(=O)N[C@@H](CC(C)C)C(=O)N[C@@H](CC(=O)O)C(=O)N[C@@H](CCCNC(=N)N)C(=O)NC(C)(C)C(=O)N[C@@H](C)C(=O)N[C@@H](CCC(N)=O)C(=O)NC(C)(C)C(=O)N[C@@H](CC(=O)O)C(=O)N[C@@H](Cc1ccccc1)C(=O)N[C@H](C(=O)N[C@@H](CC(N)=O)C(=O)N[C@@H](Cc1c[nH]c2ccccc12)C(=O)N[C@@H](CC(C)C)C(=O)N[C@@H](CC(C)C)C(=O)N[C@@H](C)C(=O)N[C@@H](CCCCNC(=O)COCCOCCNC(=O)COCCOCCNC(=O)CC[C@H](NC(=O)CC[C@H](NC(=O)CCCCCCCCCCCCCCCCC(=O)O)C(=O)O)C(=O)O)C(=O)N[C@@H](CCCNC(=N)N)C(=O)N1CCC[C@H]1C(=O)N[C@@H](CO)C(=O)N[C@@H](CO)C(=O)NCC(=O)N[C@@H](C)C(=O)N1CCC[C@H]1C(=O)N1CCC[C@H]1C(=O)N1CCC[C@H]1C(=O)N[C@@H](CO)C(N)=O)C(C)C` [Compound 58] (H-[NMeY][Aib]EGTFISDYSIALDR[Aib]AQ[Aib]DFVNWLLAK([AEEA-AEEA-γGlu-γGlu-C18 diacid])RPSSGAPPPS-NH2)?
Answer: solubility (pH 7.4, aqueous buffer, pH 7.4 Phosphate Buffer - Solubility, 200 mM Phosphate buffer pH 7.4): ≥ 30 mg/mL; solubility (pH 7.4, solubility in phosphate buffer at pH 7.4, 200 mM phosphate buffer pH 7.4): ≥ 15 mg/mL
